Measurements published in patent US20190388437A1, “COMPOSITIONS AND METHODS FOR TREATING BONE AND JOINT INFECTIONS” (priority 2014, published 2019).
≈ marks a conversion by molar mass, not a printed value.

How the values were obtained:
Type in all cases: cell-based
[1] = Synergy testing by the checkerboard method, FA/co-drug; details: FA combined with the co-drug
Description: CLSI broth microdilution (BMD) and anaerobic agar dilution (AD) methods were performed. Modifications of standard test methods included adding 10% human serum, adjusting the medium pH to 5, 6, and 8, and synergy was assessed by the checkerboard method. Mutational rates to R were determined at 4×.

[2] = system: macrolide-resistant S. aureus (ermA, B, C genotype or MLSb-resistant); test: Agar dilution MIC against resistant S. aureus; details: Staphylococcus aureus
Source text: (§1) The in vitro activity of CEM-102 was compared with that of telithromycin, azithromycin, erythromycin, levofloxacin, linezolid, and doxycycline against a total of 145 resistant S. aureus by agar dilution procedures (CLSI, M7-A7, M100-S18). The tested strains included S. aureus MRSA (Mec A genotype; 100 isolates), macrolide-resistant (ermA, B, C genotype or MLSb-resistant; 25), and ciprofloxacin-resistant (gyrA and parC genotype; 20).

[3] = system: ciprofloxacin-resistant (gyrA and parC genotype) S. aureus; test: Agar dilution MIC against resistant S. aureus; details: Staphylococcus aureus
Source text: as §1

[4] = system: S. aureus MRSA (Mec A genotype); test: Agar dilution MIC against resistant S. aureus; details: Staphylococcus aureus
Source text: as §1

S. pyogenes [SPYO] = test: Reference broth microdilution susceptibility testing, Canadian isolates
Source text: (§2) To determine a contemporary susceptibility (S) spectrum pattern. 153 GP isolates (123 S. aureus, 15 coagulase-negative staphylococci [CoNS] and 15 S. pyogenes [SPYO]) were collected from 5 Canadian medical centers between 2001 and 2006.

S. aureus [5] = test: as above; details: overall S. aureus population
Source text: as §2

S. aureus [6] = test: MIC population distribution, 217 S. aureus Canadian isolates; details: 217 Canadian isolates

Row | Molecule | Additive (number) [1] | Antagonism (number) [1] | Indeterminate (number) [1] | Indifferent (number) [1] | Synergy Complete (number) [1] | Synergy Partial (number) [1] | MIC90 [2] | MIC90 [3] | MIC90 [4] | R rate (S. pyogenes [SPYO]) | R rate (S. aureus [5]) | resistance rate (S. aureus [6])
1 | C[C@H]1COc2c(N3CCN(C)CC3)c(F)cc3c(=O)c(C(=O)O)cn1c23 [Levofloxacin] | 0 | 0 | 2 | 4 | 0 | 0 | 4 µg/mL (≈ 11.1 µM) | > 32 µg/mL | 16 µg/mL (≈ 44.3 µM) |  |  | 
2 | Cc1onc(-c2ccccc2)c1C(=O)N[C@@H]1C(=O)N2[C@@H]1SC(C)(C)[C@@H]2C(=O)O [Oxacillin] | 1 | 0 | 1 | 3 | 0 | 1 |  |  |  |  |  | 
3 | CCC[C@@H]1C[C@@H](C(=O)N[C@@H]([C@H]2O[C@H](SC)[C@H](O)[C@@H](O)[C@H]2O)[C@H](C)Cl)N(C)C1 [clindamycin] |  |  |  |  |  |  |  |  |  | 13.3% | 28.5% | 30.9%
4 | CO[C@H]1/C=C/O[C@@]2(C)Oc3c(C)c(O)c4c(O)c(c(/C=N/N5CCN(C)CC5)c(O)c4c3C2=O)NC(=O)/C(C)=C\C=C\[C@H](C)[C@H](O)[C@@H](C)[C@@H](O)[C@@H](C)[C@H](OC(C)=O)[C@@H]1C [Rifampin] | 1 | 0 | 0 | 0 | 0 | 5 |  |  |  |  |  | 
5 | Gentamicin | 3 | 0 | 0 | 1 | 1 | 1 |  |  |  |  |  | 
6 | CC[C@H]1OC(=O)[C@H](C)[C@@H](O[C@H]2C[C@@](C)(OC)[C@@H](O)[C@H](C)O2)[C@H](C)[C@@H](O[C@@H]2O[C@H](C)C[C@H](N(C)C)[C@H]2O)[C@](C)(O)C[C@@H](C)CN(C)[C@H](C)[C@@H](O)[C@]1(C)O [azithromycin] |  |  |  |  |  |  | > 32 µg/mL | 16 µg/mL (≈ 21.4 µM) | > 32 µg/mL |  |  | 
7 | CC[C@H]1OC(=O)[C@H](C)C(=O)[C@H](C)[C@@H](O[C@@H]2O[C@H](C)C[C@H](N(C)C)[C@H]2O)[C@](C)(OC)C[C@@H](C)C(=O)[C@H](C)[C@H]2N(CCCCn3cnc(-c4cccnc4)c3)C(=O)O[C@]12C [telithromycin] |  |  |  |  |  |  | 4 µg/mL (≈ 4.93 µM) | 0.06 µg/mL (≈ 0.0739 µM) | 0.06 µg/mL (≈ 0.0739 µM) |  |  | 
8 | C[C@H]1c2cccc(O)c2C(=O)C2=C(O)[C@]3(O)C(=O)C(C(N)=O)=C(O)[C@@H](N(C)C)[C@@H]3[C@@H](O)[C@@H]21 [doxycycline] |  |  |  |  |  |  |  | 1 µg/mL (≈ 2.25 µM) | 1 µg/mL (≈ 2.25 µM) |  |  | 
9 | CC[C@H]1OC(=O)[C@H](C)[C@@H](O[C@H]2C[C@@](C)(OC)[C@@H](O)[C@H](C)O2)[C@H](C)[C@@H](O[C@@H]2O[C@H](C)C[C@H](N(C)C)[C@H]2O)[C@](C)(O)C[C@@H](C)C(=O)[C@H](C)[C@@H](O)[C@]1(C)O [erythromycin] |  |  |  |  |  |  | > 32 µg/mL | > 32 µg/mL | > 32 µg/mL | 20.0% | 52.0% | 52.1%
10 | CN[C@H](CC(C)C)C(=O)N[C@H]1C(=O)N[C@@H](CC(N)=O)C(=O)N[C@H]2C(=O)N[C@H]3C(=O)N[C@H](C(=O)N[C@H](C(=O)O)c4cc(O)cc(O)c4-c4cc3ccc4O)[C@H](O)c3ccc(c(Cl)c3)Oc3cc2cc(c3O[C@@H]2O[C@H](CO)[C@@H](O)[C@H](O)[C@H]2O[C@H]2C[C@](C)(N)[C@H](O)[C@H](C)O2)Oc2ccc(cc2Cl)[C@H]1O [Vancomycin] | 2 | 0 | 0 | 4 | 0 | 0 |  |  |  |  |  | 
11 | CC(=O)NC[C@H]1CN(c2ccc(N3CCOCC3)c(F)c2)C(=O)O1 [linezolid] |  |  |  |  |  |  | 2 µg/mL (≈ 5.93 µM) | 2 µg/mL (≈ 5.93 µM) | 2 µg/mL (≈ 5.93 µM) |  |  | 
